From ChEMBL document CHEMBL1144449, “Design, synthesis, and evaluation of orally active 4-(2,4-difluoro-5-(methoxycarbamoyl)phenylamino)pyrrolo[2,1-f][1,2,4]triazines as dual vascular endothelial growth factor receptor-2 and fibroblast growth factor receptor-1 inhibitors” (J Med Chem, 2005)

How the values were obtained:
[1] = molecular target: Fibroblast growth factor receptor 1 (Homo sapiens, UniProt P11362); assay: Inhibition of human fibroblast growth factor receptor 1
[2] = molecular target: Fibroblast growth factor receptor (Homo sapiens, UniProt P22607+P11362+P22455+P21802); assay: Inhibition of FGF-stimulated human umbilical vein endothelial cell proliferation; assay type: functional, cell-based
[3] = molecular target: Vascular endothelial growth factor receptor (Homo sapiens, UniProt P17948+P35916+P35968); assay: Inhibition of VEGF-stimulated human umbilical vein endothelial cell proliferation; assay type: functional, cell-based
[4] = molecular target: Vascular endothelial growth factor receptor 2 (Homo sapiens, UniProt P35968); assay: Inhibition of human vascular endothelial growth factor receptor 2 kinase activity
Sequence of Vascular endothelial growth factor receptor 2 (P35968 whole entry): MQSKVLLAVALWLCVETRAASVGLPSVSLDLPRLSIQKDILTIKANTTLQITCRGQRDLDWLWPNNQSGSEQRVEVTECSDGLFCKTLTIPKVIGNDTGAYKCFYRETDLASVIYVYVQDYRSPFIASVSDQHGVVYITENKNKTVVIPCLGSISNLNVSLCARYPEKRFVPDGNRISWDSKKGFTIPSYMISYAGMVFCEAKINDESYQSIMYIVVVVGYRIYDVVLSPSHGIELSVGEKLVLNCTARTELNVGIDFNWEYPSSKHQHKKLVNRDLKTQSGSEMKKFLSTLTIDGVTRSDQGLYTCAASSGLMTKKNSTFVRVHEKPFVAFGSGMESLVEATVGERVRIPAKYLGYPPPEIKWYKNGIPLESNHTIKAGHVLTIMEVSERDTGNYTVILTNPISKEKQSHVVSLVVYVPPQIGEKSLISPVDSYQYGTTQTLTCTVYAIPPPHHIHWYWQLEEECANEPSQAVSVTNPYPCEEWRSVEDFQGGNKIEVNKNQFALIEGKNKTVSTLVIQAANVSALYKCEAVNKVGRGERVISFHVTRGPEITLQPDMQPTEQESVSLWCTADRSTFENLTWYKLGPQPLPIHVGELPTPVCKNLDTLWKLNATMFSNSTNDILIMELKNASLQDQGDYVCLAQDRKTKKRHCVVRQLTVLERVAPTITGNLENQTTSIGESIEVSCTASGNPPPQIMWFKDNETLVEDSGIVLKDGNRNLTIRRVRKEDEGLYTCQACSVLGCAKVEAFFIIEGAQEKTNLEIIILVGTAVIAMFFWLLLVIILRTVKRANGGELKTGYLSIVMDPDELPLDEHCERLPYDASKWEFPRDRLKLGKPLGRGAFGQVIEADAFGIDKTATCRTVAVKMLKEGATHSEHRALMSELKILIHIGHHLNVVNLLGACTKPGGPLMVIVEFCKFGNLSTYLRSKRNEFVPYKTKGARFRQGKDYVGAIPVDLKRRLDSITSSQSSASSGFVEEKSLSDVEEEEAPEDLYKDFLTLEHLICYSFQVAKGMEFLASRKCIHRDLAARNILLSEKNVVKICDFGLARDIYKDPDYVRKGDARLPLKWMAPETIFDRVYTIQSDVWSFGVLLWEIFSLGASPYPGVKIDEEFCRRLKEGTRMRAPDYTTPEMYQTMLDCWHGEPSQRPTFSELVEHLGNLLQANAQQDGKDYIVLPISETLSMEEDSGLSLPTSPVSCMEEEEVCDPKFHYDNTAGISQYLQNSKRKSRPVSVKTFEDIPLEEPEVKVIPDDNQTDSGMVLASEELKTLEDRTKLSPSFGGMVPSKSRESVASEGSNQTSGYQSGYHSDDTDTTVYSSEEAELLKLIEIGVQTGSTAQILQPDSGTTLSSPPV

[5] = Plasma level after 4 hours of oral administration of 50 mg/kg compound in mouse; assay type: ADME, organism-based; design: dose 50 mg/kg, route oral; details: read-out: Plasma level
[6] = Plasma level after 1 hour of oral administration of 50 mg/kg compound in mouse; assay type: ADME, organism-based; design: dose 50 mg/kg, route oral; details: read-out: Plasma level
[7] = molecular target: Cytochrome P450 2C9 (Homo sapiens, UniProt P11712); assay: Inhibitory concentration against human cytochrome P450 2C9; assay type: ADME
[8] = molecular target: T1, Cytochrome P450 1A2 (Homo sapiens, UniProt P05177); assay: Inhibitory concentration against human cytochrome P450 1A2; assay type: ADME
T1 sequence (P05177 whole entry): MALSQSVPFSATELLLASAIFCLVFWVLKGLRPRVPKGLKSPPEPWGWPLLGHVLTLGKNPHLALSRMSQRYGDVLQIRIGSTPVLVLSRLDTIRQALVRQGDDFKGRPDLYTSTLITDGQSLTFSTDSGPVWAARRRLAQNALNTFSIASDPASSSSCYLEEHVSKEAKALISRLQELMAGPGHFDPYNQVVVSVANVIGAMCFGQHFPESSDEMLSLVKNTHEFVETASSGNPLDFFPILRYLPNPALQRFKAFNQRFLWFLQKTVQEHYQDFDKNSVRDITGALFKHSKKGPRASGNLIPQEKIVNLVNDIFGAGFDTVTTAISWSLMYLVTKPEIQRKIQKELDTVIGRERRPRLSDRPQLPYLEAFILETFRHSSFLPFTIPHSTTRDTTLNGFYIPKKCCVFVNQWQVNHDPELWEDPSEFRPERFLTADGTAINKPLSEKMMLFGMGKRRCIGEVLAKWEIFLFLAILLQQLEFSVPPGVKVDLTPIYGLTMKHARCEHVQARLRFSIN

[9] = molecular target: Cytochrome P450 3A4 (Homo sapiens, UniProt P08684); assay: Inhibitory concentration against human cytochrome P450 3A4; assay type: ADME
Sequence of Cytochrome P450 3A4 (P08684 whole entry): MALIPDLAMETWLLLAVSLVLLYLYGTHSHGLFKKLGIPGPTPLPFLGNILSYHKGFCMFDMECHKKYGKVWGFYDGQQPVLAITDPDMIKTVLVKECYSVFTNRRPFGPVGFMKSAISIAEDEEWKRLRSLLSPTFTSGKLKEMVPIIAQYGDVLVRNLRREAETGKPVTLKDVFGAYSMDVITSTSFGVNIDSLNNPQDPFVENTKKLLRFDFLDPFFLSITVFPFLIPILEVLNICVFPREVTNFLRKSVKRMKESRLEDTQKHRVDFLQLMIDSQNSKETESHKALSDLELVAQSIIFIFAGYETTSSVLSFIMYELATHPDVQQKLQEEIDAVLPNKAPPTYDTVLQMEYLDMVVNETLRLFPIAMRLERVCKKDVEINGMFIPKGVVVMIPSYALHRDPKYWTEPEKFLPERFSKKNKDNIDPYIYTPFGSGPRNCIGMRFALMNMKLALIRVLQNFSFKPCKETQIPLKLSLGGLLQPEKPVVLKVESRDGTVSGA

[10] = test system: Mus musculus; assay: Tumor growth inhibition determined after oral administration of […] mg/kg/day compound against established L2987 human lung carcinoma xenografts implanted subcutaneously in athymic mouse; assay type: functional; details: read-out: TGI
[11] = molecular target: Cyclin-dependent kinase 2 (Homo sapiens, UniProt P24941); assay: Inhibition of human cyclin-dependent kinase 2
[12] = molecular target: Protein kinase C alpha type (Homo sapiens, UniProt P17252); assay: Inhibition of human protein kinase C alpha
[13] = molecular target: Insulin-like growth factor 1 receptor (Homo sapiens, UniProt P08069); assay: Inhibition of human insulin-like growth factor I receptor
Sequence of Insulin-like growth factor 1 receptor (P08069 31-736 limits assumed): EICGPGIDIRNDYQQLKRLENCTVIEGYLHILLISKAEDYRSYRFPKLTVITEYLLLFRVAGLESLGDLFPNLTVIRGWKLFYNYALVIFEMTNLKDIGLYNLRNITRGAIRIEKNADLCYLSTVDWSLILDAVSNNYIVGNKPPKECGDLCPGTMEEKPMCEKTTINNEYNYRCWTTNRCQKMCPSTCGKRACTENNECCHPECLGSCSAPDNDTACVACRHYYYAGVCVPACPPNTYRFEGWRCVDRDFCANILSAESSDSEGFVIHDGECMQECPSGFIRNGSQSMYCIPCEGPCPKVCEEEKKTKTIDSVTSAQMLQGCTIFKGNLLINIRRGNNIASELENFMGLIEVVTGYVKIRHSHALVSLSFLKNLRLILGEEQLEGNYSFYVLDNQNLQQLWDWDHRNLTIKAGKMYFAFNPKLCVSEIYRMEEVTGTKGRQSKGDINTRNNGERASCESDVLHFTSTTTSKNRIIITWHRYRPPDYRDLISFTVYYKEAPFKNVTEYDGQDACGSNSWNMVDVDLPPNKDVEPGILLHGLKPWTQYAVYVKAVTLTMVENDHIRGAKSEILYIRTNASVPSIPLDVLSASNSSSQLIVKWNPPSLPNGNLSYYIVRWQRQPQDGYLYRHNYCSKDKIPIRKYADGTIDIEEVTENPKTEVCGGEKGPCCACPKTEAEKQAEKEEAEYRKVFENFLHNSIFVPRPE
Sequence of Insulin-like growth factor 1 receptor (P08069 741-1367 limits assumed): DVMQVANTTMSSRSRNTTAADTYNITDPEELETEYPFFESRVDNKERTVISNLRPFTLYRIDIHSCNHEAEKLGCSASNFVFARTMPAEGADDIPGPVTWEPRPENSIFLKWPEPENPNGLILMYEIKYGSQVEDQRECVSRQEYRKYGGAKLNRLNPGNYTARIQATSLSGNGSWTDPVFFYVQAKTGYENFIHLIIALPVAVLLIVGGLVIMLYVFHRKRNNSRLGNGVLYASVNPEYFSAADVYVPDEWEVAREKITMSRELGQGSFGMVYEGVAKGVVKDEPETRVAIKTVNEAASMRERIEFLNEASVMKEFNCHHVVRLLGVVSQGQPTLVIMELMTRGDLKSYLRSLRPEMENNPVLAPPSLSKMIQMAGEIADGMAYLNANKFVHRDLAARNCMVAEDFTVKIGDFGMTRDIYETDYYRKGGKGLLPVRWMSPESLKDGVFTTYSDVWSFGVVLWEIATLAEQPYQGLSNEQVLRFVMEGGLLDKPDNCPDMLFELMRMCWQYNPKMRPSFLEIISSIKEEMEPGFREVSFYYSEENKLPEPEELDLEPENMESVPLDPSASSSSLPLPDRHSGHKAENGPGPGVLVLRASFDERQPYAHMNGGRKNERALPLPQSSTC

[14] = molecular target: Receptor tyrosine-protein kinase erbB-2 (Homo sapiens, UniProt P04626); assay: Inhibition against human HER2 kinase
[15] = test system: Mus musculus; assay: Tumor growth inhibition determined after oral administration of 50 mg/kg/day compound against established L2987 human lung carcinoma xenografts implanted subcutaneously in athymic mouse; assay type: functional; details: read-out: TGI
[16] = molecular target: Platelet-derived growth factor receptor beta (Homo sapiens, UniProt P09619); assay: Inhibition of human platelet-derived growth factor receptor beta
Sequence of Platelet-derived growth factor receptor beta (P09619 whole entry): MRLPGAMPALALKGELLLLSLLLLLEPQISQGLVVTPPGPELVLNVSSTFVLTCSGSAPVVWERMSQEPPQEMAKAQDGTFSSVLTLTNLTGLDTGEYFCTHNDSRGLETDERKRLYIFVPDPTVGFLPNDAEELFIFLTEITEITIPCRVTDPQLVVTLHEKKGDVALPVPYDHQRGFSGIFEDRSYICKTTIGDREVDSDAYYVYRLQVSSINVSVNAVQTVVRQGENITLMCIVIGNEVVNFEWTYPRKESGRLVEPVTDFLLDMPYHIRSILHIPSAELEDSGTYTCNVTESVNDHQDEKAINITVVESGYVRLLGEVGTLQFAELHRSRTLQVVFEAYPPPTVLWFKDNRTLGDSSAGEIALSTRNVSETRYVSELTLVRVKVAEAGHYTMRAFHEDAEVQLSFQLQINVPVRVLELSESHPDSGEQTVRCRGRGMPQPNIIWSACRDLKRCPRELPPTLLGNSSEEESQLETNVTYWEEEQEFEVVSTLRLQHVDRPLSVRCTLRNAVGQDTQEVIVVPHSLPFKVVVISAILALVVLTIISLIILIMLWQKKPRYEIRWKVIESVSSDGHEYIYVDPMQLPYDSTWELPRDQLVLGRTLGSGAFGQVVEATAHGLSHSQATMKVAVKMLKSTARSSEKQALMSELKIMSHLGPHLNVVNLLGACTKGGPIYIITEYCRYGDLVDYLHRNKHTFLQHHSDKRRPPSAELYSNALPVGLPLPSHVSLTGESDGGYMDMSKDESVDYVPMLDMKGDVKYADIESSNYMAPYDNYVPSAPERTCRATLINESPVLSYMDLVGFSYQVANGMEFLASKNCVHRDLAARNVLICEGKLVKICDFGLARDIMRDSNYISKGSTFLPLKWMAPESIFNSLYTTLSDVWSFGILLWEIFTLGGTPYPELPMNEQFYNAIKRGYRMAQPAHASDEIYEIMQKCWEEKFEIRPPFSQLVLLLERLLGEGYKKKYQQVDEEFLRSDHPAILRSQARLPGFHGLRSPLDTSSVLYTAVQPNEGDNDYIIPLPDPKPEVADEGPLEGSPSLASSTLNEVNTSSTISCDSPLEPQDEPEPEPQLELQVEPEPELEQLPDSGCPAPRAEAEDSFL

[17] = test system: Mus musculus; assay: Tumor growth inhibition determined after oral administration of 100 mg/kg/day compound against established L2987 human lung carcinoma xenografts implanted subcutaneously in athymic mouse; assay type: functional; details: read-out: TGI
[18] = molecular target: Tyrosine-protein kinase Lck (Homo sapiens, UniProt P06239); assay: Inhibition of human p56 lck tyrosine kinase
[19] = test system: Mus musculus; assay: Tumor growth inhibition determined after oral administration of 60 mg/kg/day compound against established L2987 human lung carcinoma xenografts implanted subcutaneously in athymic mouse; assay type: functional; details: read-out: TGI

CONC(=O)c1cc(Nc2ncnn3cc(-c4nnc(C5CC5)o4)c(C(C)C)c23)c(F)cc1F
IC50 [1]: 14 nM | IC50 [2]: 5.3 nM | IC50 [3]: 3.6 nM | IC50 [4]: 11 nM

CONC(=O)c1cc(Nc2ncnn3cc(NC(=O)OC4CCN(C)CC4)c(C(C)C)c23)c(F)cc1F
concentration at 4 h [5]: 3 µM | concentration at 1 h [6]: 5.1 µM | IC50 [3]: 19 nM | IC50 [4]: 36 nM

CONC(=O)c1cc(Nc2ncnn3cc(-c4nnc(CC5CC5)o4)c(C(C)C)c23)c(F)cc1F
IC50 [1]: 27 nM | IC50 [2]: 9.2 nM | IC50 [3]: 4 nM | IC50 [4]: 17 nM

CCOC(=O)c1cn2ncnc(Nc3cc(C(=O)NOCC(C)C)c(F)cc3F)c2c1C(C)C
IC50 [4]: 1200 nM

CONC(=O)c1cc(Nc2ncnn3cc(-c4nnc(CC(C)C)o4)c(C(C)C)c23)c(F)cc1F
IC50 [1]: 33 nM | IC50 [2]: 6.6 nM | IC50 [3]: 2.1 nM | IC50 [4]: 23 nM

CONC(=O)c1cc(Nc2ncnn3cc(NC(=O)OCCCN4CCCCC4)c(C(C)C)c23)c(F)cc1F
IC50 [3]: 62 nM | IC50 [4]: 79 nM

CONC(=O)c1cc(Nc2ncnn3cc(-c4n[nH]c(C)n4)c(C(C)C)c23)c(F)cc1F
IC50 [1]: 50 nM | IC50 [2]: 46 nM | IC50 [3]: 50 nM | IC50 [4]: 71 nM

CCOC(=O)c1cn2ncnc(Nc3ccc(Br)c(C(=O)NOC)c3)c2c1C(C)C
IC50 [4]: 270 nM

CONC(=O)c1cc(Nc2ncnn3cc(-c4ncc(C)o4)c(C(C)C)c23)c(F)cc1F
IC50 [7]: 3600 nM | IC50 [8]: 64 nM | IC50 [1]: 20 nM | IC50 [2]: 4 nM | IC50 [9]: 5100 nM | IC50 [3]: 1.1 nM | IC50 [4]: 8 nM

CONC(=O)c1cc(Nc2ncnn3cc(-c4nnc(C(F)F)o4)c(C(C)C)c23)c(F)cc1F
inhibition in vivo at 150 mg/kg/day [10]: 88.4% | IC50 [11]: > 50000 nM | IC50 [12]: > 50000 nM | IC50 [1]: 100 nM | IC50 [13]: > 25000 nM | IC50 [14]: > 10000 nM | inhibition in vivo at 50 mg/kg/day [15]: 30% | IC50 [2]: 21 nM | concentration at 4 h [5]: 155 µM | concentration at 1 h [6]: 187 µM | IC50 [16]: > 2000 nM | inhibition in vivo at 100 mg/kg/day [17]: 46.5%

CONC(=O)c1cc(Nc2ncnn3cc(-c4nnc(CC(F)(F)F)o4)c(C(C)C)c23)c(F)cc1F
IC50 [1]: 68 nM | IC50 [2]: 44 nM | IC50 [3]: 25 nM | IC50 [4]: 29 nM

CONC(=O)c1cc(Nc2ncnn3cc(-c4noc(C)n4)c(C(C)C)c23)c(F)cc1F
IC50 [1]: 140 nM | IC50 [4]: 110 nM

CONC(=O)c1cc(Nc2ncnn3cc(NC(=O)OCCCS(C)(=O)=O)c(C(C)C)c23)c(F)cc1F
IC50 [11]: > 50000 nM | IC50 [18]: 5100 nM | IC50 [12]: > 50000 nM | IC50 [1]: 58 nM | IC50 [13]: > 25000 nM | IC50 [14]: 5300 nM | concentration at 4 h [5]: 13.8 µM | concentration at 1 h [6]: 7.9 µM | IC50 [16]: > 2000 nM

CCOC(=O)c1cn2ncnc(Nc3cc(C(=O)NOCC4CC4)c(F)cc3F)c2c1C(C)C
IC50 [4]: 190 nM

CONC(=O)c1cc(Nc2ncnn3cc(-c4nnc(CS(C)(=O)=O)o4)c(C(C)C)c23)c(F)cc1F
inhibition in vivo at 60 mg/kg/day [19]: 42.6% | IC50 [1]: 16 nM | IC50 [2]: 4.6 nM | concentration at 4 h [5]: 232 µM | concentration at 1 h [6]: 288 µM | inhibition in vivo at 100 mg/kg/day [17]: 74.9% | IC50 [3]: 2.1 nM | IC50 [4]: 16 nM

CCOC(=O)c1cn2ncnc(Nc3cc(C(=O)NOC)c(F)cc3F)c2c1C(C)C
IC50 [4]: 13 nM

CONC(=O)c1cc(Nc2ncnn3cc(-c4nnco4)c(C(C)C)c23)c(F)cc1F
IC50 [1]: 160 nM | IC50 [2]: 54 nM | IC50 [3]: 91 nM | IC50 [4]: 77 nM

CCOC(=O)c1cn2ncnc(Nc3cc(C(=O)NOC(C)C)c(F)cc3F)c2c1C(C)C
IC50 [4]: 350 nM

CONC(=O)c1cc(Nc2ncnn3cc(-c4nnc(N(C)C)o4)c(C(C)C)c23)c(F)cc1F
IC50 [1]: 18 nM | IC50 [2]: 7.3 nM | IC50 [3]: 6.7 nM | IC50 [4]: 11 nM

CCONC(=O)c1cc(Nc2ncnn3cc(C(=O)OCC)c(C(C)C)c23)c(F)cc1F
IC50 [4]: 40 nM

CCOC(=O)c1cn2ncnc(Nc3cc(C(=O)NOC)ccc3F)c2c1C(C)C
IC50 [4]: 34 nM

CCOC(=O)c1cn2ncnc(Oc3cccc(C(=O)NOC)c3)c2c1C(C)C
IC50 [4]: 270 nM

CCOC(=O)c1cn2ncnc(Nc3ccc(F)c(C(=O)NOC)c3)c2c1C(C)C
IC50 [4]: 79 nM

CCOC(=O)c1cn2ncnc(Nc3cccc(C(=O)NOC)c3)c2c1C(C)C
IC50 [4]: 130 nM

CONC(=O)c1cc(Nc2ncnn3cc(-c4nnc(C)o4)c(C(C)C)c23)c(F)cc1F
IC50 [11]: > 50000 nM | IC50 [12]: > 50000 nM | IC50 [1]: 19 nM | IC50 [13]: > 25000 nM | IC50 [14]: 8000 nM | IC50 [2]: 6.5 nM | concentration at 4 h [5]: 37.7 µM | concentration at 1 h [6]: 132 µM | IC50 [16]: > 2000 nM

CCOC(=O)c1cn2ncnc(Nc3ccc(C)c(C(=O)NOC)c3)c2c1C(C)C
IC50 [4]: 120 nM

CCOC(=O)Nc1cn2ncnc(Nc3cc(C(=O)NOC)c(F)cc3F)c2c1C(C)C
IC50 [3]: 31 nM | IC50 [4]: 66 nM

CONC(=O)c1cc(Nc2ncnn3cc(-c4nnc(C(F)(F)F)o4)c(C(C)C)c23)c(F)cc1F
IC50 [1]: 84 nM | IC50 [2]: 33 nM | IC50 [3]: 35 nM | IC50 [4]: 76 nM

CONC(=O)c1cc(Nc2ncnn3cc(NC(=O)OCC4CCCO4)c(C(C)C)c23)c(F)cc1F (centres undefined)
IC50 [11]: > 50000 nM | IC50 [12]: > 50000 nM | IC50 [13]: > 25000 nM | IC50 [14]: > 10000 nM | concentration at 4 h [5]: 2.9 µM | concentration at 1 h [6]: 29.5 µM

CONC(=O)c1cc(Nc2ncnn3cc(-c4nc(C)no4)c(C(C)C)c23)c(F)cc1F
IC50 [1]: 110 nM | IC50 [2]: 7.6 nM | IC50 [3]: 6.8 nM | IC50 [4]: 49 nM

CCc1nnc(-c2cn3ncnc(Nc4cc(C(=O)NOC)c(F)cc4F)c3c2C(C)C)o1
IC50 [1]: 28 nM | IC50 [2]: 4.7 nM | IC50 [3]: 1.8 nM | IC50 [4]: 17 nM

CONC(=O)c1cc(Nc2ncnn3cc(-c4nnc(CN(C)C)o4)c(C(C)C)c23)c(F)cc1F
IC50 [1]: 149 nM | IC50 [4]: 66 nM

CONC(=O)c1cc(Nc2ncnn3cc(-c4nnc(C(C)C)o4)c(C(C)C)c23)c(F)cc1F
IC50 [1]: 39 nM | IC50 [2]: 1 nM | IC50 [3]: 18 nM | IC50 [4]: 22 nM

CONC(=O)c1cc(Nc2ncnn3cc(NC(=O)OCc4ccccc4)c(C(C)C)c23)c(F)cc1F
IC50 [4]: 180 nM
